Each structure is given as a SMILES string.

This assay deals with T1, RORgT (Homo sapiens, UniProt P51449).
T1 construct: Gal4 (fusion partner); expressed in transfected cells; host or cells: engineered Jurkat cells (Jurkat pEx/Gal/hRORγ CLBD/HYG pG5luc/blast)
T1 sequence (P51449 267-516): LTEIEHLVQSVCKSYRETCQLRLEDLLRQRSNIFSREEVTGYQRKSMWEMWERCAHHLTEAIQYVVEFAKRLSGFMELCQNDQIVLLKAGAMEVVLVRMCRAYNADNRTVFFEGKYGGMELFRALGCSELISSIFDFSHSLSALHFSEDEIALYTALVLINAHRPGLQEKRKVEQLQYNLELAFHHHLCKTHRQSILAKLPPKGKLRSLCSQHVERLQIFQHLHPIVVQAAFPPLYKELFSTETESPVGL
As to the kind of experiment: RORgT Gal4 Luciferase Reporter Gene Assay. The class given is cell-based. To be noted: engineered Jurkat cells overexpressing RORgT (LBD or full length) with Gal4 Luc reporter; 18 hours at 37° C.; 40 μM to 0.67 nM; read-out: RORg_GAL4 EC50. The method, boiled down:
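Cells exposed to compound 18 hours at 37° C, then lysed for luciferase luminescence. Inhibition of constitutive activity expressed as percent reduction of signal window relative to a control compound.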

As to `COc1ncc(Oc2c(Cl)ccc(CNC(=O)c3ccc(S(N)(=O)=O)cc3)c2Cl)cc1C(C)C` [Example 146], the EC50 is 0.028 µM. In the case of `COc1ncc(Oc2c(Cl)ccc(CNC(=O)C3CCN(S(N)(=O)=O)CC3)c2Cl)cc1C(C)C` [Example 147] it was 0.0096 µM.

Consider `CC(C)c1cc(F)cc(Oc2c(Cl)ccc(CNC(=O)C3CCN(S(C)(=O)=O)CC3)c2Cl)c1` [Example 148], for which the EC50 was found to be 0.004 µM. Consider `CC(C)c1cc(F)cc(Oc2c(Cl)ccc(CNC(=O)c3ccc(S(C)(=O)=O)cc3)c2Cl)c1` [Example 149], for which the EC50 was determined as 0.015 µM. In the case of `CC(C)c1cc(F)cc(Oc2c(Cl)ccc(CNC(=O)c3ccc(S(N)(=O)=O)cc3)c2Cl)c1` [Example 150] it was 0.0082 µM; in that of `CC(C)c1cc(F)cc(Oc2c(Cl)ccc(CNC(=O)C3CCN(S(N)(=O)=O)CC3)c2Cl)c1` [Example 151], 0.0099 µM. Turning to `COc1ncc(Oc2c(Cl)ccc(C(=O)NCc3ccc(S(C)(=O)=O)cc3)c2Cl)cc1C(C)(C)F` [Example 152], the EC50 came to 0.0025 µM. In the case of `COc1ncc(Oc2c(Cl)ccc(C(=O)NCC3CCN(S(C)(=O)=O)CC3)c2Cl)cc1C(C)(C)F` [Example 153] it was 0.195 µM; in that of `COc1ncc(Oc2c(Cl)ccc(C(=O)NCc3ccc(S(N)(=O)=O)cc3)c2Cl)cc1C(C)(C)F` [Example 154], 0.0066 µM. In the case of `COc1ccc(Oc2c(Cl)cc(C(=O)NCc3cnc(C)cn3)cc2Cl)cc1C(C)C` [Example 155] it was 4.75 µM; in that of `COc1ccc(Oc2c(Cl)cc(C(=O)NCc3ccc(S(N)(=O)=O)cc3)cc2Cl)cc1C(C)C` [Example 156], 1.93 µM; in that of `CCS(=O)(=O)c1ccccc1CNC(=O)c1cc(Cl)c(Oc2ccc(OC)c(C(C)C)c2)c(Cl)c1` [Example 157], 0.939 µM. `COc1ccc(Oc2c(Cl)cc(C(=O)NCc3ccc(S(C)(=O)=O)cc3)cc2Cl)cc1C(C)C` [Example 158]: the EC50 came to 0.499 µM.

As for `CCS(=O)(=O)N[C@@H]1CCN(CC(=O)Nc2cc(Cl)c(Oc3ccc(OC)c(C(C)C)c3)c(Cl)c2)C1` [Example 159], the EC50 was 0.377 µM. As for `COc1ccc(Oc2c(Cl)cc(NC(=O)CN3CC[C@@H](NS(C)(=O)=O)C3)cc2Cl)cc1C(C)C` [Example 160], the half-maximal effective concentration (EC50) was determined as 0.325 µM. Take `COc1ccc(Oc2c(Cl)cc(NC(=O)CN3CC[C@@H](NS(=O)(=O)C4CC4)C3)cc2Cl)cc1C(C)C` [Example 161]: the EC50 is 2.33 µM. In the case of `CCS(=O)(=O)NC1CN(CC(=O)Nc2cc(Cl)c(Oc3ccc(OC)c(C(C)C)c3)c(Cl)c2)C1` [Example 162] it was 0.22 µM; in that of `COc1ccc(Oc2c(Cl)cc(NC(=O)CN3CC(NS(C)(=O)=O)C3)cc2Cl)cc1C(C)C` [Example 163], 0.34 µM.

As for `CCS(=O)(=O)N[C@H]1CCN(CC(=O)Nc2cc(Cl)c(Oc3ccc(OC)c(C(C)C)c3)c(Cl)c2)C1` [Example 164], the EC50 amounted to 0.08 µM. `COc1ccc(Oc2c(Cl)cc(NC(=O)CN3CC[C@H](NS(C)(=O)=O)C3)cc2Cl)cc1C(C)C` [Example 165]: the EC50 was determined as 0.182 µM. With `COc1ccc(Oc2c(Cl)cc(NC(=O)CN3CCC[C@@H](NS(=O)(=O)C4CC4)C3)cc2Cl)cc1C(C)C` [Example 166] the figure was 0.424 µM. In the case of `CCS(=O)(=O)N[C@@H]1CCCN(CC(=O)Nc2cc(Cl)c(Oc3ccc(OC)c(C(C)C)c3)c(Cl)c2)C1` [Example 167] it was 0.245 µM.

Consider `COc1ccc(Oc2c(Cl)cc(NC(=O)CN3CCC[C@H](NS(C)(=O)=O)C3)cc2Cl)cc1C(C)C` [Example 168], for which the half-maximal effective concentration (EC50) is 0.27 µM.

In the case of `COc1ccc(Oc2c(Cl)cc(NC(=O)CN3CCC(NS(C)(=O)=O)CC3)cc2Cl)cc1C(C)C` [Example 169], the EC50 was 0.093 µM. In the case of `COc1ccc(Oc2c(Cl)cc(NC(=O)CN3CC[C@H](NS(=O)(=O)C4CC4)C3)cc2Cl)cc1C(C)C` [Example 170] it was 0.37 µM; in that of `COc1ccc(Oc2c(Cl)cc(NC(=O)CN3CCC[C@@H](NS(C)(=O)=O)C3)cc2Cl)cc1C(C)C` [Example 171], 2.59 µM. Turning to `CCS(=O)(=O)N[C@H]1CCCN(CC(=O)Nc2cc(Cl)c(Oc3ccc(OC)c(C(C)C)c3)c(Cl)c2)C1` [Example 172], the EC50 was found to be 0.049 µM. With `CCS(=O)(=O)NC1CCN(CC(=O)Nc2cc(Cl)c(Oc3ccc(OC)c(C(C)C)c3)c(Cl)c2)CC1` [Example 173] the figure was 0.265 µM; with `COc1ccc(Oc2c(Cl)cc(NC(=O)CN3CC(NS(=O)(=O)C4CC4)C3)cc2Cl)cc1C(C)C` [Example 174], 0.286 µM; with `COc1ccc(Oc2c(Cl)ccc(CNC(=O)CC3CCN(C(=O)C(F)(F)F)CC3)c2Cl)cc1C(C)C` [Example 175], 0.345 µM. With `COc1ccc(Oc2c(Cl)ccc(C(=O)N3CCC(c4ccccc4)CC3)c2Cl)cc1C(C)C` [Example 176] the figure was 0.083 µM; with `COc1ccc(Oc2c(Cl)ccc(C(=O)NCCc3nc4ccccc4s3)c2Cl)cc1C(C)C` [Example 178], 0.336 µM. In the case of `COc1ccc(Oc2c(Cl)ccc(C(=O)N3CCc4ccccc4C3)c2Cl)cc1C(C)C` [Example 179] it was 1.13 µM.

Consider `COc1ccc(Oc2c(Cl)ccc(C(=O)N3CCC(O)(c4ccccc4)CC3)c2Cl)cc1C(C)C` [Example 180], for which the EC50 came out at 0.325 µM. With `COc1ccc(Oc2c(Cl)ccc(C(=O)n3nc(C)cc3CN)c2Cl)cc1C(C)C` [Example 181] the figure was 0.214 µM. In the case of `COCCN(C)C(=O)c1ccc(Cl)c(Oc2ccc(OC)c(C(C)C)c2)c1Cl` [Example 182] it was 0.355 µM. With `COCCNC(=O)c1ccc(Cl)c(Oc2ccc(OC)c(C(C)C)c2)c1Cl` [Example 183] the figure was 0.284 µM.

As for `COc1ccc(Oc2c(Cl)ccc(C(=O)N3CCCCC3)c2Cl)cc1C(C)C` [Example 184], the EC50 worked out at 0.246 µM. In the case of `CCS(=O)(=O)N1CCN(CC(=O)NCc2ccc(Cl)c(Oc3ccc(OC)c(C(C)C)c3)c2Cl)CC1` [Example 185] it was 0.028 µM. In the case of `COc1ccc(Oc2c(Cl)ccc(CNC(=O)CN3CCN(S(C)(=O)=O)CC3)c2Cl)cc1C(C)C` [Example 186] it was 0.09 µM; in that of `CCS(=O)(=O)N1CCC(CC(=O)NCc2ccc(Cl)c(Oc3ccc(OC)c(C(C)C)c3)c2Cl)CC1` [Example 187], 0.522 µM; in that of `COc1ccc(Oc2c(Cl)ccc(CNC(=O)COC3CCN(S(C)(=O)=O)CC3)c2Cl)cc1C(C)C` [Example 188], 0.383 µM. With `COc1ccc(Oc2c(Cl)ccc(C(=O)N3CCC(O)CC3)c2Cl)cc1C(C)C` [Example 189], the EC50 worked out at 0.04 µM. In the case of `CCS(=O)(=O)N1CC2(CN(CC(=O)Nc3cc(Cl)c(Oc4ccc(OC)c(C(C)C)c4)c(Cl)c3)C2)C1` [Example 190] it was 0.989 µM; in that of `COc1ccc(Oc2c(Cl)ccc(C(=O)N3CCC(c4ccc(Cl)cc4)CC3)c2Cl)cc1C(C)C` [Example 191], 0.128 µM; in that of `COc1ccc(Oc2c(Cl)ccc(C(=O)N3CCC(N(C)C)CC3)c2Cl)cc1C(C)C` [Example 192], 0.089 µM. As to `COc1ccc(Oc2c(Cl)ccc(C(=O)NC3CCN(Cc4ccccc4)C3)c2Cl)cc1C(C)C` (centres unmarked) [Example 193], the EC50 was 0.866 µM. Turning to `COc1ccc(Oc2c(Cl)ccc(C(=O)NCc3ccccn3)c2Cl)cc1C(C)C` [Example 194], the EC50 amounted to 6.46 µM. With `COc1ccc(Oc2c(Cl)ccc(C(=O)NCc3ccc(N(C)C)cc3)c2Cl)cc1C(C)C` [Example 195] the figure was 0.616 µM. With `COc1ccc(Oc2c(Cl)ccc(C(=O)N3CCN(C)CC3)c2Cl)cc1C(C)C` [Example 196] the figure was 0.2 µM. In the case of `COc1ccc(Oc2c(Cl)ccc(C(=O)NC3CCC(O)CC3)c2Cl)cc1C(C)C` (centres unmarked) [Example 197] it was 0.86 µM; in that of `COc1ccc(Oc2c(Cl)ccc(C(=O)NCc3cccc(Cl)c3)c2Cl)cc1C(C)C` [Example 198], 0.872 µM. In the case of `COc1ccc(Oc2c(Cl)ccc(C(=O)NCCc3ccccc3Cl)c2Cl)cc1C(C)C` [Example 199], the 50% effective concentration (EC50) amounted to 3.89 µM. In the case of `COc1ccc(Oc2c(Cl)ccc(C(=O)NCc3ccccc3Cl)c2Cl)cc1C(C)C` [Example 200] it was 0.33 µM. For `COc1ccc(Oc2c(Cl)ccc(C(=O)NCC#N)c2Cl)cc1C(C)C` [Example 201], the EC50 amounted to 0.511 µM. Take `COc1ccc(Oc2c(Cl)ccc(C(=O)Nc3cccnc3)c2Cl)cc1C(C)C` [Example 202]: the 50% effective concentration (EC50) turned out to be 4.49 µM. With `COc1ccc(Oc2c(Cl)ccc(C(=O)N3CCN(C(C)=O)CC3)c2Cl)cc1C(C)C` [Example 203] the figure was 0.129 µM. In the case of `COc1ccc(Oc2c(Cl)ccc(C(=O)NC(C)c3cn(C)nc3C)c2Cl)cc1C(C)C` (centres unmarked) [Example 204] it was 0.04 µM; in that of `COc1ccc(Oc2c(Cl)ccc(C(=O)NCc3cc(C)no3)c2Cl)cc1C(C)C` [Example 205], 0.564 µM; in that of `COc1ccc(Oc2c(Cl)ccc(C(=O)NCc3cnc(C)cn3)c2Cl)cc1C(C)C` [Example 206], 0.1 µM. In the case of `COc1ccc(Oc2c(Cl)ccc(C(=O)Nc3cccc4cnccc34)c2Cl)cc1C(C)C` [Example 207] it was 0.063 µM. As to `COc1ccc(Oc2c(Cl)ccc(C(=O)NCCO)c2Cl)cc1C(C)C` [Example 208], the EC50 worked out at 0.508 µM. In the case of `CCCCNC(=O)c1ccc(Cl)c(Oc2ccc(OC)c(C(C)C)c2)c1Cl` [Example 209] it was 0.659 µM; in that of `COc1ccc(Oc2c(Cl)ccc(C(=O)N3CCCC3)c2Cl)cc1C(C)C` [Example 210], 0.105 µM; in that of `COc1ccc(Oc2c(Cl)ccc(C(=O)N3CCOCC3)c2Cl)cc1C(C)C` [Example 211], 0.046 µM.

The EC50 is the concentration needed to bring the measured effect to its halfway point.

The record behind these values is patent publication US20220306630A1, “AGONISTS OF ROR GAMMAt” (BRISTOL-MYERS SQUIBB COMPANY, priority 2019, published 2022).
